In assay [1] the target is Prostaglandin G/H synthase 1 (Homo sapiens, UniProt P23219). Kind of assay: biochemical. The note with it: platelet. The class given is tissue-based, Platelet.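 Note: inhibition of COX-1 enzyme activity, with arachidonic acid supplied as substrate; in other assays of this panel Not Active means under 50% inhibition at 10 µM.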
For assay [2], the target named is T1, Vasoactive intestinal polypeptide receptor 1 (Homo sapiens, UniProt P32241). Note: in other assays of this panel Not Active means under 50% inhibition at 10 µM.
T1 sequence (P32241 whole entry): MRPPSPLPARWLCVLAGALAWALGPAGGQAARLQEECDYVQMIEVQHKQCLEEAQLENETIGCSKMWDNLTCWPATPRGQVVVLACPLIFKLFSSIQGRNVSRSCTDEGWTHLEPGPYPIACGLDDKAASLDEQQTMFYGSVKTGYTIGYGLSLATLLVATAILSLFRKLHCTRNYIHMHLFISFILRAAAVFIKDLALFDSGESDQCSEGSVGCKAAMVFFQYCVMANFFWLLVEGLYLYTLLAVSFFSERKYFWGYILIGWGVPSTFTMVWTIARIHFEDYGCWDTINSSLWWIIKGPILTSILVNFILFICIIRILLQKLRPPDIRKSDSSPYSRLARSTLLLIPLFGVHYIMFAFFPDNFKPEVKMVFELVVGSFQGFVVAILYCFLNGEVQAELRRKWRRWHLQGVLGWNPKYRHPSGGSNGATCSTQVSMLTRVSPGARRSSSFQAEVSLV
The class given is cell membranes, Membrane. The note with it: ht-29.

Assay [3] addresses T2, Amine oxidase [flavin-containing] A (Homo sapiens, UniProt P21397).
T2 sequence (P21397 whole entry): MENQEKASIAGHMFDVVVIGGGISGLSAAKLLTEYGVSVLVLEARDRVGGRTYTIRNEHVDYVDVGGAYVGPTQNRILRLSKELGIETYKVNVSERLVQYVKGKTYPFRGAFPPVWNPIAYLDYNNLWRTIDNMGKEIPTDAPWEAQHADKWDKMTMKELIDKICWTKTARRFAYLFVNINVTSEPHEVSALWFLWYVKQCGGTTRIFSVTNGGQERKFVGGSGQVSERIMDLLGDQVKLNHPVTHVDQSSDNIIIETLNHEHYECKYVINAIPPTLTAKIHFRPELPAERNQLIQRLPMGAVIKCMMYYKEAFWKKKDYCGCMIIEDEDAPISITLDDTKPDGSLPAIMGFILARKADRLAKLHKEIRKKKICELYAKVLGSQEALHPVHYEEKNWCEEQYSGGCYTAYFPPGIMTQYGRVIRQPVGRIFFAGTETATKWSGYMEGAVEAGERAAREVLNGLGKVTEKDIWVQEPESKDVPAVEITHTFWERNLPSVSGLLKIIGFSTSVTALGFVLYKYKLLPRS
Description: DRUGMATRIX: Monoamine Oxidase MAO-A enzyme inhibition (substrate: Kynuramine). Also noted: species or system BTI-TN-5B1-4. The following applies: bti-tn-5b1-4; Not Active = under 50% inhibition at 10 µM.

The next assay has as its target Histamine H2 receptor (Homo sapiens, UniProt P25021). The class given is cell membranes, CHO-K1, Membrane. Note: in other assays of this panel Not Active means under 50% inhibition at 10 µM.
The nature of assay [4]: DRUGMATRIX: Purinergic P2X radioligand binding (ligand: [3H] alpha, beta-Methylene-ATP). The format is cell membranes, Oryctolagus cuniculus, New Zealand albino, Urinary bladder, Membrane. The following applies: Not Active = under 50% inhibition at 10 µM.

Histamine H2 receptor, sequence (P25021 whole entry): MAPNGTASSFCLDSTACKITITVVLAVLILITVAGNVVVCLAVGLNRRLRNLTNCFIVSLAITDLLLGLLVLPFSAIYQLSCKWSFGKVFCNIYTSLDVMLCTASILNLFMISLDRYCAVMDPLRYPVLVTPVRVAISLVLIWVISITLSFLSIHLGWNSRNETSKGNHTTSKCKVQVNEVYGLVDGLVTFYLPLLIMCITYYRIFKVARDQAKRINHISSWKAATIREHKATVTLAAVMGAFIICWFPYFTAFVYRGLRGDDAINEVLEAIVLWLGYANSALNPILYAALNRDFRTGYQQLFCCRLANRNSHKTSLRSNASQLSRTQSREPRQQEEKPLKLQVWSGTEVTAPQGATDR
Prostaglandin G/H synthase 1, sequence (P23219 whole entry): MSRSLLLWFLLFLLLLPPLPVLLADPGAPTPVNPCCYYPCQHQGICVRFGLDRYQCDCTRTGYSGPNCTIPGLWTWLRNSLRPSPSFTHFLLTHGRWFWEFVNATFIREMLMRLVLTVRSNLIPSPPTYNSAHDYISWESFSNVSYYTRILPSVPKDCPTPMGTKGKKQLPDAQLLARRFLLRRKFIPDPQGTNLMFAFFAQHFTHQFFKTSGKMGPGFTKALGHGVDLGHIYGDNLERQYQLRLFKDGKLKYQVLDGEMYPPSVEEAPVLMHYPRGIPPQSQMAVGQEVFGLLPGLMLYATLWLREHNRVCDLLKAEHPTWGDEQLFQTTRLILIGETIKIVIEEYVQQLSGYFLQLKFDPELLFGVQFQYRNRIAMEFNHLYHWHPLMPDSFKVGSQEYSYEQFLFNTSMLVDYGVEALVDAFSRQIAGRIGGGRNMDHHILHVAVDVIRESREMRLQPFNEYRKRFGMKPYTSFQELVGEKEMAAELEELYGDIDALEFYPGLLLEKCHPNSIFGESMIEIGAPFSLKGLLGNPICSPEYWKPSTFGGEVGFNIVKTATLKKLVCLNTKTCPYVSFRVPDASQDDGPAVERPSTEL

For orientation: IC50 means the concentration needed to halve the response being measured. One may read the Ki as the equilibrium dissociation constant of an inhibitor or competing ligand from its target. Take `COc1ccc(C(=O)N2CCCC2=O)cc1`: the IC50 result (in assay [1]; in assay [2]; in assay [3]; on Histamine H2 receptor (cho-k1); in assay [4]) was “Not Active” throughout. Moreover, the Ki entry in assay [4] is on record as “Not Active”.
`NCCCC(O)(P(=O)(O)O)P(=O)(O)O` [ALENDRONIC ACID]: the IC50 result (in assay [1]; in assay [2]; in assay [3]; on Histamine H2 receptor (cho-k1); in assay [4]) was “Not Active” in each case. For the same compound, the Ki result in assay [4] is given as “Not Active”.
With `Cn1c(=O)c2[nH]cnc2n(C)c1=O.Cn1c(=O)c2[nH]cnc2n(C)c1=O.NCCN` [AMINOPHYLLINE], the IC50 entry (in assay [1]; in assay [2]; in assay [3]; on Histamine H2 receptor (cho-k1); in assay [4]) was “Not Active” throughout. For the same compound, in assay [4], the Ki entry is reported as “Not Active”.
Consider `CCC1(CCC(C)C)C(=O)NC(=O)NC1=O` [AMOBARBITAL], for which the half-maximal inhibitory concentration (IC50) entry (in assay [1]; in assay [2]; in assay [3]; on Histamine H2 receptor (cho-k1); in assay [4]) was “Not Active” each time. Also, the Ki result in assay [4] is listed as “Not Active”.
Consider `CC1(C)S[C@@H]2[C@H](NC(=O)[C@H](N)c3ccccc3)C(=O)N2[C@H]1C(=O)O` [AMPICILLIN], for which the IC50 result (in assay [1]; in assay [2]; in assay [3]; at Histamine H2 receptor (cho-k1); in assay [4]) was “Not Active” in each case. Moreover, the Ki entry in assay [4] is “Not Active”.
Take `O=C1O[C@H]([C@@H](O)CO)C(O)=C1O` [ASCORBIC ACID]: the IC50 result (in assay [1]; in assay [2]; in assay [3]; on Histamine H2 receptor (cho-k1); in assay [4]) was “Not Active” in each case. Further, the Ki result in assay [4] is “Not Active”.
Take `CN1[C@@H]2CC[C@H]1C[C@@H](OC(=O)C(CO)c1ccccc1)C2` (stereo partly drawn) [ATROPINE]: the IC50 entry (in assay [1]; in assay [2]; in assay [3]; against Histamine H2 receptor (cho-k1); in assay [4]) was “Not Active” in each case. Further, the Ki result in assay [4] is reported as “Not Active”.
Take `Brc1c(NC2=NCCN2)ccc2nccnc12` [BRIMONIDINE]: the IC50 result (in assay [1]; in assay [2]; in assay [3]; against Histamine H2 receptor (cho-k1); in assay [4]) was “Not Active” each time. In assay [4], the Ki entry is listed as “Not Active”.
Take `CN(C)[C@@H]1C(O)=C(C(N)=O)C(=O)[C@@]2(O)C(O)=C3C(=O)c4c(O)ccc(Cl)c4[C@@](C)(O)[C@H]3C[C@@H]12` [CHLORTETRACYCLINE]: the IC50 result (in assay [1]; in assay [2]; in assay [3]; against Histamine H2 receptor (cho-k1); in assay [4]) was “Not Active” in each case. Also, the Ki entry in assay [4] is reported as “Not Active”.
`C[C@@H]1C[C@H]2[C@@H]3CCC4=CC(=O)C=C[C@]4(C)[C@@]3(F)[C@@H](O)C[C@]2(C)[C@H]1C(=O)CO` [DESOXIMETASONE]: the IC50 entry (in assay [1]; in assay [2]; in assay [3]; at Histamine H2 receptor (cho-k1); in assay [4]) was “Not Active” throughout. Besides, the Ki result in assay [4] is on record as “Not Active”.
As to `C[C@@H]1C[C@H]2[C@@H]3CCC4=CC(=O)C=C[C@]4(C)[C@@]3(F)[C@@H](O)C[C@]2(C)[C@@]1(O)C(=O)CO` [DEXAMETHASONE], the IC50 entry (in assay [1]; in assay [2]; in assay [3]; on Histamine H2 receptor (cho-k1); in assay [4]) was “Not Active” throughout. The Ki entry in assay [4] is “Not Active”.
Take `CN(C)CC[C@@H](c1ccc(Cl)cc1)c1ccccn1` [DEXCHLORPHENIRAMINE]: the IC50 entry in assay [1] was “Not Active”; in assay [2], “Not Active”; in assay [3] it was “Not Active”; on Histamine H2 receptor (read-out: IC50) it was 8.37 µM; in assay [4], “Not Active”. The results for the Ki (on Histamine H2 receptor (read-out: Ki); in assay [4]) were 8.23 µM and “Not Active”, respectively.
